Columns and labels:
Rv2671 [1] = target: T1, Rv2671 (Mycobacterium tuberculosis, UniProt P71968); format: biochemical
Rv2671 [2] = target: T1, Rv2671; assay: X-ray cocrystal structure; format: biochemical
[3] = test system: Nc1nc2c(c(=O)[nH]1)N=C(CNc1ccc(C(=O)N[C@@H](CCC(=O)O)C(=O)O)cc1)CN2; assay: purified protein
[4] = test system: Nc1nc2c(c(=O)[nH]1)N=C(CNc1ccc(C(=O)O)cc1)CN2; assay: purified protein

In the case of `NC(=O)C1=CN([C@@H]2O[C@H](COP(=O)(O)OP(=O)(O)OC[C@H]3O[C@@H](n4cnc5c(N)ncnc54)[C@H](OP(=O)(O)O)[C@@H]3O)[C@@H](O)[C@H]2O)C=CC1` [NADPH], the “cosubstrate in DHF reduction assay with purified enzyme (340 nm, HPLC)” value (Rv2671 [1]) is reported as “Tetrahydrofolate, the product of the reaction, was observed by HPLC spectrometry after the addition of DHF and NADPH to Rv2671”.

`COc1cc(NCc2ccc3nc(N)nc(N)c3c2C)cc(OC)c1OC` [TMQ, trimetrexate] gave an IC50 (Rv2671 [2]) of 280 ± 20 nM.

“Rv2671 (Mycobacterium tuberculosis H37Rv)” gave a Km [3] of 136 ± 32 µM and a Km [4] of 180.2 ± 25.5 µM.

From paper PMC6201685 (Biochemistry, 2016)
